Test results taken from article PMC10866072, “Design, synthesis, molecular modelling and biological evaluation of novel 6-amino-5-cyano-2-thiopyrimidine derivatives as potent anticancer agents against leukemia and apoptotic inducers” (Journal of Enzyme Inhibition and Medicinal Chemistry, 2024).

Assays:
HT29 = format: cell-based; details: Homo sapiens, HT-29, one dose 10^-5 M, 48 h
HL-60(TB) = format: cell-based; details: Homo sapiens, one dose 10^-5 M, 48 h
SK-OV-3 = format: cell-based; details: Homo sapiens, one dose 10^-5 M, 48 h
MDA-MB-435 = format: cell-based; details: Homo sapiens, one dose 10^-5 M, 48 h, read-out: % growth
HOP-92 = format: cell-based; details: Homo sapiens, one dose 10^-5 M, 48 h
NCI-H460 = format: cell-based; details: Homo sapiens, one dose 10^-5 M, 48 h, read-out: % growth
U251 = format: cell-based; details: Homo sapiens, U-251, one dose 10^-5 M, 48 h
OVCAR-3 = format: cell-based; details: Homo sapiens, one dose 10^-5 M, 48 h
DU-145 = format: cell-based; details: Homo sapiens, one dose 10^-5 M, 48 h
SK-MEL-2 = format: cell-based; details: Homo sapiens, one dose 10^-5 M, 48 h
CAKI-1 = format: cell-based; details: Homo sapiens, CAKI-1, 48 h, one dose 10^-5 M, 48 h
SF-295 = format: cell-based; details: Homo sapiens, one dose 10^-5 M, 48 h
TK-10 = format: cell-based; details: Homo sapiens, one dose 10^-5 M, 48 h
K-562 = format: cell-based; details: Homo sapiens, K562, one dose 10^-5 M, 48 h
IGROV1 = format: cell-based; details: Homo sapiens, IGROV-1, one dose 10^-5 M, 48 h, read-out: % growth
BT-549 = format: cell-based; details: Homo sapiens, one dose 10^-5 M, 48 h
[1] = test system: full NCI 60 cell lines panel
MDA-MB-231/ATCC = format: cell-based; details: Homo sapiens, one dose 10^-5 M, 48 h
HCC-2998 = format: cell-based; details: Homo sapiens, one dose 10^-5 M, 48 h
SNB-75 = format: cell-based; details: Homo sapiens, one dose 10^-5 M, 48 h
UACC-257 = format: cell-based; details: Homo sapiens, one dose 10^-5 M, 48 h
ACHN = format: cell-based; details: Homo sapiens, one dose 10^-5 M, 48 h
T-47D = format: cell-based; details: Homo sapiens, T47D, one dose 10^-5 M, 48 h, read-out: % growth
UACC-62 = format: cell-based; details: Homo sapiens, one dose 10^-5 M, 48 h
UO-31 = format: cell-based; details: Homo sapiens, UO-31, 48 h, one dose 10^-5 M, 48 h
A549/ATCC = format: cell-based; details: Homo sapiens, one dose 10^-5 M, 48 h
HOP-62 = format: cell-based; details: Homo sapiens, one dose 10^-5 M, 48 h
NCI-H23 = format: cell-based; details: Homo sapiens, one dose 10^-5 M, 48 h, read-out: % growth
LOX IMVI = format: cell-based; details: Homo sapiens, one dose 10^-5 M, 48 h, read-out: % growth
SF-539 = format: cell-based; details: Homo sapiens, one dose 10^-5 M, 48 h
SW-620 = format: cell-based; details: Homo sapiens, one dose 10^-5 M, 48 h
MDA-MB-468 = format: cell-based; details: Homo sapiens, one dose 10^-5 M, 48 h
MCF7 = format: cell-based; details: Homo sapiens, one dose 10^-5 M, 48 h, read-out: % growth
KM12 = format: cell-based; details: Homo sapiens, one dose 10^-5 M, 48 h
MOLT-4 = format: cell-based; details: Homo sapiens, one dose 10^-5 M, 48 h, read-out: % growth
SN12C = format: cell-based, human; details: Homo sapiens, one dose 10^-5 M, 48 h
NCI-H522 = format: cell-based; details: Homo sapiens, one dose 10^-5 M, 48 h
SR = format: cell-based; details: Homo sapiens, one dose 10^-5 M, 48 h
MALME-3M = format: cell-based; details: Homo sapiens, one dose 10^-5 M, 48 h
HS 578T = format: cell-based; details: Homo sapiens; one dose 10^-5 M, 48 h; HS 578T; read-out: % growth
RPMI-8226 = format: cell-based; details: Homo sapiens, one dose 10^-5 M, 48 h
OVCAR-8 = format: cell-based; details: Homo sapiens, one dose 10^-5 M, 48 h
OVCAR-5 = format: cell-based; details: Homo sapiens, one dose 10^-5 M, 48 h
COLO 205 = format: cell-based; details: Homo sapiens, one dose 10^-5 M, 48 h
SNB-19 = format: cell-based; details: Homo sapiens, one dose 10^-5 M, 48 h, read-out: % growth
NCI-H226 = format: cell-based; details: Homo sapiens, one dose 10^-5 M, 48 h
SK-MEL-28 = format: cell-based; details: Homo sapiens, one dose 10^-5 M, 48 h
786-0 = format: cell-based; details: Homo sapiens, one dose 10^-5 M, 48 h
HCT-15 = format: cell-based; details: Homo sapiens, one dose 10^-5 M, 48 h, read-out: % growth
PC-3 = format: cell-based; details: Homo sapiens, one dose 10^-5 M, 48 h
HCT-116 = format: cell-based; details: Homo sapiens, one dose 10^-5 M, 48 h, read-out: % growth
NCI/ADR-RES = format: cell-based; details: Homo sapiens, one dose 10^-5 M, 48 h
OVCAR-4 = format: cell-based; details: Homo sapiens, one dose 10^-5 M, 48 h
A498 = format: cell-based; details: Homo sapiens, one dose 10^-5 M, 48 h
EKVX = format: cell-based; details: Homo sapiens, one dose 10^-5 M, 48 h
CCRF-CEM = format: cell-based; details: Homo sapiens, one dose 10^-5 M, 48 h
SF-268 = format: cell-based; details: Homo sapiens, one dose 10^-5 M, 48 h, read-out: % growth
SK-MEL-5 = format: cell-based; details: Homo sapiens, one dose 10^-5 M, 48 h, read-out: % growth
M14 = format: cell-based; details: Homo sapiens, one dose 10^-5 M, 48 h

**Q.** Which % growth at 10 µM (HT29) does the source give for CN(C)c1ccc(-c2nc(S)nc(N)c2C(=N)NN=Cc2ccccc2)cc1 [Compound 4a, 4-Amino-6-[4-(dimethylamino)phenyl]-2-mercapto-N'-[phenylmethylene] pyrimidine-5-carboximidohydrazide] here?
**A.** Its % growth at 10 µM is 101%.

**Q.** And the % growth at 10 µM (HL-60(TB))?
**A.** The % growth at 10 µM was 94.7%.

**Q.** And the % growth at 10 µM (SK-OV-3)?
**A.** Its % growth at 10 µM is 118%.

**Q.** What about the activity at 10 µM (MDA-MB-435) of the same molecule?
**A.** The activity at 10 µM was 99.4%.

**Q.** And the % growth at 10 µM (HOP-92)?
**A.** Its % growth at 10 µM is 114%.

**Q.** And the activity at 10 µM (NCI-H460)?
**A.** Its activity at 10 µM is 104%.

**Q.** And the % growth at 10 µM (U251)?
**A.** Its % growth at 10 µM is 111%.

**Q.** What about the % growth at 10 µM (OVCAR-3) of the same molecule?
**A.** The % growth at 10 µM was 102%.

**Q.** What about the % growth at 10 µM (DU-145) of the same molecule?
**A.** The % growth at 10 µM was 104%.

**Q.** What about the % growth at 10 µM (SK-MEL-2) of the same molecule?
**A.** The % growth at 10 µM was 108%.

**Q.** And the % growth at 10 µM (CAKI-1)?
**A.** Its % growth at 10 µM is 99%.

**Q.** What about the % cell growth at 10 µM (SF-295) of the same molecule?
**A.** Its % cell growth at 10 µM is 104%.

**Q.** What about the % cell growth at 10 µM (TK-10) of the same molecule?
**A.** The % cell growth at 10 µM was 105%.

**Q.** And the % growth at 10 µM (K-562)?
**A.** The % growth at 10 µM was 107%.

**Q.** What about the activity at 10 µM (IGROV1) of the same molecule?
**A.** The activity at 10 µM was 111%.

**Q.** And the % cell growth at 10 µM (BT-549)?
**A.** Its % cell growth at 10 µM is 103%.

**Q.** And the activity at 10 µM ([1]; Homo sapiens, 60 cell, 48 h, read-out: Mean % growth)?
**A.** Its activity at 10 µM is 104%.

**Q.** What about the “activity on all 60 cancer cell lines tested (in words)” value ([1]; one dose) of the same molecule?
**A.** Its value is “weak activity”.

**Q.** What about the % growth at 10 µM (MDA-MB-231/ATCC) of the same molecule?
**A.** The % growth at 10 µM was 109%.

**Q.** And the % growth at 10 µM (HCC-2998)?
**A.** Its % growth at 10 µM is 113%.

**Q.** And the % growth at 10 µM (SNB-75)?
**A.** Its % growth at 10 µM is 101%.

**Q.** And the percent cell growth at 10 µM (UACC-257)?
**A.** Its percent cell growth at 10 µM is 106%.

**Q.** And the % growth at 10 µM (ACHN)?
**A.** The % growth at 10 µM was 101%.

**Q.** And the activity at 10 µM (T-47D)?
**A.** Its activity at 10 µM is 105%.

**Q.** And the % growth at 10 µM (UACC-62)?
**A.** The % growth at 10 µM was 97.9%.

**Q.** And the % cell growth at 10 µM (UO-31)?
**A.** Its % cell growth at 10 µM is 75%.

**Q.** What about the % growth at 10 µM (A549/ATCC) of the same molecule?
**A.** Its % growth at 10 µM is 103%.

**Q.** What about the % growth at 10 µM (HOP-62) of the same molecule?
**A.** The % growth at 10 µM was 109%.

**Q.** And the activity at 10 µM (NCI-H23)?
**A.** The activity at 10 µM was 104%.

**Q.** What about the activity at 10 µM (LOX IMVI) of the same molecule?
**A.** The activity at 10 µM was 98.3%.

**Q.** What about the % growth at 10 µM (SF-539) of the same molecule?
**A.** The % growth at 10 µM was 106%.

**Q.** And the % growth at 10 µM (SW-620)?
**A.** Its % growth at 10 µM is 108%.

**Q.** What about the percent cell growth at 10 µM (MDA-MB-468) of the same molecule?
**A.** The percent cell growth at 10 µM was 117%.

**Q.** What about the activity at 10 µM (MCF7) of the same molecule?
**A.** The activity at 10 µM was 93.1%.

**Q.** What about the % growth at 10 µM (KM12) of the same molecule?
**A.** Its % growth at 10 µM is 107%.

**Q.** What about the activity at 10 µM (MOLT-4) of the same molecule?
**A.** Its activity at 10 µM is 106%.

**Q.** What about the % growth at 10 µM (SN12C) of the same molecule?
**A.** Its % growth at 10 µM is 103%.

**Q.** And the % growth at 10 µM (NCI-H522)?
**A.** Its % growth at 10 µM is 99.4%.

**Q.** What about the percent cell growth at 10 µM (SR) of the same molecule?
**A.** Its percent cell growth at 10 µM is 104%.

**Q.** And the % growth at 10 µM (MALME-3M)?
**A.** Its % growth at 10 µM is 105%.

**Q.** What about the activity at 10 µM (HS 578T) of the same molecule?
**A.** The activity at 10 µM was 113%.

**Q.** What about the % growth at 10 µM (RPMI-8226) of the same molecule?
**A.** The % growth at 10 µM was 89.8%.

**Q.** What about the % growth of cells at 10 µM (OVCAR-8) of the same molecule?
**A.** The % growth of cells at 10 µM was 115%.

**Q.** And the percent cell growth at 10 µM (OVCAR-5)?
**A.** Its percent cell growth at 10 µM is 111%.

**Q.** And the % growth at 10 µM (COLO 205)?
**A.** Its % growth at 10 µM is 140%.

**Q.** What about the activity at 10 µM (SNB-19) of the same molecule?
**A.** The activity at 10 µM was 102%.

**Q.** And the % growth at 10 µM (NCI-H226)?
**A.** Its % growth at 10 µM is 98.6%.

**Q.** What about the % cell growth at 10 µM (SK-MEL-28) of the same molecule?
**A.** The % cell growth at 10 µM was 105%.

**Q.** What about the % growth at 10 µM (786-0) of the same molecule?
**A.** The % growth at 10 µM was 102%.

**Q.** What about the activity at 10 µM (HCT-15) of the same molecule?
**A.** Its activity at 10 µM is 99.9%.

**Q.** What about the percent cell growth at 10 µM (PC-3) of the same molecule?
**A.** Its percent cell growth at 10 µM is 85.1%.

**Q.** And the activity at 10 µM (HCT-116)?
**A.** The activity at 10 µM was 110%.

**Q.** And the cell growth percent at 10 µM (NCI/ADR-RES)?
**A.** The cell growth percent at 10 µM was 104%.

**Q.** What about the % growth at 10 µM (OVCAR-4) of the same molecule?
**A.** The % growth at 10 µM was 101%.

**Q.** What about the % growth at 10 µM (A498) of the same molecule?
**A.** The % growth at 10 µM was 107%.

**Q.** What about the % cell growth at 10 µM (EKVX) of the same molecule?
**A.** Its % cell growth at 10 µM is 96.3%.

**Q.** And the % cell growth at 10 µM (CCRF-CEM)?
**A.** Its % cell growth at 10 µM is 82%.

**Q.** What about the activity at 10 µM (SF-268) of the same molecule?
**A.** The activity at 10 µM was 104%.

**Q.** What about the activity at 10 µM (SK-MEL-5) of the same molecule?
**A.** The activity at 10 µM was 103%.

**Q.** And the % growth at 10 µM (M14)?
**A.** The % growth at 10 µM was 106%.
